The supplement of paper PMC10307832

How the values were obtained:
Test in all cases: relative viability (nuclei count vs DMSO), 5 days (fraction); higher = more cells survive
201T = tested on: 201T
How it was run: (§1)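 A single step with final 0.05% Triton X-100, 1% formaldehyde and 1 ug/ml Hoechst fixed the cells and stained nuclei 5 days after treatment. Lung cancer cell lines in 1536-well plates had been treated by pin tool the day after seeding with one drug alone or a fixed anchor-drug dose plus five library-drug doses (not always all listed) in √10 steps, and nuclei were counted on 4× images. Relative viability is the ratio of nuclei in treated wells to nuclei in vehicle wells, taken as the median of duplicate plates.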

COR-L 105 = tested on: COR-L 105
How it was run: as §1

ChaGo-K-1 = tested on: ChaGo-K-1
How it was run: as §1

EKVX = tested on: EKVX
How it was run: as §1

H3255 = tested on: H3255
How it was run: as §1

HARA = tested on: HARA
How it was run: as §1

HCC-827 = tested on: HCC-827
How it was run: as §1

HOP-62 = tested on: HOP-62
How it was run: as §1

LCLC-103H = tested on: LCLC-103H
How it was run: as §1

LOU-NH91 = tested on: LOU-NH91
How it was run: as §1

NCI-H1975 = tested on: NCI-H1975
How it was run: as §1

NCI-H2126 = tested on: NCI-H2126
How it was run: as §1

NCI-H2228 = tested on: NCI-H2228
How it was run: as §1

NCI-H23 = tested on: NCI-H23
How it was run: as §1

NCI-H2405 = tested on: NCI-H2405
How it was run: as §1

NCI-H3122 = tested on: NCI-H3122
How it was run: as §1

NCI-H596 = tested on: NCI-H596
How it was run: as §1

NCI-H650 = tested on: NCI-H650
How it was run: as §1

NCI-H661 = tested on: NCI-H661
How it was run: as §1

NCI-H727 = tested on: NCI-H727
How it was run: as §1

PC-3 [JPC-3] = tested on: PC-3 [JPC-3]
How it was run: as §1

SK-LU-1 = tested on: SK-LU-1
How it was run: as §1

SW 900 = tested on: SW 900
How it was run: as §1

`Cc1cn(-c2cc(NC(=O)c3ccc(C)c(Nc4nccc(-c5cccnc5)n4)c3)cc(C(F)(F)F)c2)cn1` [Nilotinib] + O=C(c1cc(Cc2n[nH]c(=O)c3ccccc23)ccc1F)N1CCN(C(=O)C2CC2)CC1 [Olaparib] (partner 8 µM) was tested, and the relative viability (201T; first compound 0.001 µM) was 0.843, the relative viability (201T; first compound 0.003162 µM) was 0.876 and the relative viability (201T; first compound 0.01 µM) was 0.959. It also gave a relative viability (201T; first compound 0.03162 µM) of 0.935, a relative viability (201T; first compound 0.1 µM) of 0.869 and a relative viability (COR-L 105; first compound 0.001 µM) of 0.629. The relative viability (COR-L 105; first compound 0.003162 µM) was 0.688, the relative viability (COR-L 105; first compound 0.01 µM) was 0.645 and the relative viability (COR-L 105; first compound 0.03162 µM) was 0.636. For the same compound, the relative viability (COR-L 105; first compound 0.1 µM) was 1.09, the relative viability (ChaGo-K-1; first compound 0.001 µM) was 0.419 and the relative viability (ChaGo-K-1; first compound 0.003162 µM) was 0.476. The relative viability (ChaGo-K-1; first compound 0.01 µM) was 0.478, the relative viability (ChaGo-K-1; first compound 0.03162 µM) was 0.464 and the relative viability (ChaGo-K-1; first compound 0.1 µM) was 0.412. The relative viability (EKVX; first compound 0.001 µM) was 0.735, the relative viability (EKVX; first compound 0.003162 µM) was 1.08 and the relative viability (EKVX; first compound 0.01 µM) was 1.23. For the same compound, the relative viability (EKVX; first compound 0.03162 µM) was 0.834, the relative viability (EKVX; first compound 0.1 µM) was 1.07 and the relative viability (H3255; first compound 0.001 µM) was 0.533. It also gave a relative viability (H3255; first compound 0.003162 µM) of 0.561, a relative viability (H3255; first compound 0.01 µM) of 0.572 and a relative viability (H3255; first compound 0.03162 µM) of 0.474. The relative viability (H3255; first compound 0.1 µM) was 0.501, the relative viability (HARA; first compound 0.001 µM) was 0.639 and the relative viability (HARA; first compound 0.003162 µM) was 0.867. The relative viability (HARA; first compound 0.01 µM) was 0.676, the relative viability (HARA; first compound 0.03162 µM) was 0.535 and the relative viability (HARA; first compound 0.1 µM) was 0.747. For the same compound, the relative viability (HCC-827; first compound 0.001 µM) was 0.637, the relative viability (HCC-827; first compound 0.003162 µM) was 0.741 and the relative viability (HCC-827; first compound 0.03162 µM) was 0.49. For the same compound, the relative viability (HCC-827; first compound 0.1 µM) was 0.689, the relative viability (HOP-62; first compound 0.003162 µM) was 0.38 and the relative viability (HOP-62; first compound 0.01 µM) was 0.393. The relative viability (HOP-62; first compound 0.03162 µM) was 0.403, the relative viability (HOP-62; first compound 0.1 µM) was 0.352 and the relative viability (LCLC-103H; first compound 0.001 µM) was 0.761. It also gave a relative viability (LCLC-103H; first compound 0.003162 µM) of 0.903, a relative viability (LCLC-103H; first compound 0.01 µM) of 0.969 and a relative viability (LCLC-103H; first compound 0.03162 µM) of 0.749. It also gave a relative viability (LCLC-103H; first compound 0.1 µM) of 0.8, a relative viability (LOU-NH91; first compound 0.001 µM) of 0.877 and a relative viability (LOU-NH91; first compound 0.003162 µM) of 1.05. It also gave a relative viability (LOU-NH91; first compound 0.01 µM) of 1.09, a relative viability (LOU-NH91; first compound 0.03162 µM) of 0.94 and a relative viability (LOU-NH91; first compound 0.1 µM) of 0.997. It also gave a relative viability (NCI-H1975; first compound 0.001 µM) of 0.553, a relative viability (NCI-H1975; first compound 0.003162 µM) of 0.809 and a relative viability (NCI-H1975; first compound 0.01 µM) of 0.786. For the same compound, the relative viability (NCI-H1975; first compound 0.03162 µM) was 0.491, the relative viability (NCI-H1975; first compound 0.1 µM) was 0.63 and the relative viability (NCI-H2126; first compound 0.001 µM) was 0.902. It also gave a relative viability (NCI-H2126; first compound 0.003162 µM) of 1.03, a relative viability (NCI-H2126; first compound 0.01 µM) of 1.11 and a relative viability (NCI-H2126; first compound 0.03162 µM) of 0.876. It also gave a relative viability (NCI-H2126; first compound 0.1 µM) of 0.83, a relative viability (NCI-H2228; first compound 0.001 µM) of 0.459 and a relative viability (NCI-H2228; first compound 0.003162 µM) of 0.584. It also gave a relative viability (NCI-H2228; first compound 0.01 µM) of 0.76, a relative viability (NCI-H2228; first compound 0.03162 µM) of 0.384 and a relative viability (NCI-H2228; first compound 0.1 µM) of 0.835. For the same compound, the relative viability (NCI-H23; first compound 0.001 µM) was 0.353, the relative viability (NCI-H23; first compound 0.003162 µM) was 0.302 and the relative viability (NCI-H23; first compound 0.01 µM) was 0.321. For the same compound, the relative viability (NCI-H23; first compound 0.03162 µM) was 0.295, the relative viability (NCI-H23; first compound 0.1 µM) was 0.331 and the relative viability (NCI-H2405; first compound 0.001 µM) was 0.837. The relative viability (NCI-H2405; first compound 0.003162 µM) was 0.878, the relative viability (NCI-H2405; first compound 0.01 µM) was 0.858 and the relative viability (NCI-H2405; first compound 0.03162 µM) was 0.728. The relative viability (NCI-H2405; first compound 0.1 µM) was 0.629, the relative viability (NCI-H3122; first compound 0.001 µM) was 0.591 and the relative viability (NCI-H3122; first compound 0.003162 µM) was 0.688. For the same compound, the relative viability (NCI-H3122; first compound 0.01 µM) was 0.848, the relative viability (NCI-H3122; first compound 0.03162 µM) was 0.515 and the relative viability (NCI-H3122; first compound 0.1 µM) was 0.721. It also gave a relative viability (NCI-H596; first compound 0.001 µM) of 0.651, a relative viability (NCI-H596; first compound 0.003162 µM) of 0.702 and a relative viability (NCI-H596; first compound 0.01 µM) of 0.711. It also gave a relative viability (NCI-H596; first compound 0.03162 µM) of 0.646, a relative viability (NCI-H596; first compound 0.1 µM) of 0.671 and a relative viability (NCI-H650; first compound 0.001 µM) of 0.357. For the same compound, the relative viability (NCI-H650; first compound 0.003162 µM) was 0.432, the relative viability (NCI-H650; first compound 0.01 µM) was 0.454 and the relative viability (NCI-H650; first compound 0.03162 µM) was 0.36. It also gave a relative viability (NCI-H650; first compound 0.1 µM) of 0.344, a relative viability (NCI-H661; first compound 0.001 µM) of 0.754 and a relative viability (NCI-H661; first compound 0.003162 µM) of 0.893. It also gave a relative viability (NCI-H661; first compound 0.01 µM) of 0.949, a relative viability (NCI-H661; first compound 0.03162 µM) of 0.672 and a relative viability (NCI-H661; first compound 0.1 µM) of 0.748. The relative viability (NCI-H727; first compound 0.001 µM) was 0.574, the relative viability (NCI-H727; first compound 0.003162 µM) was 0.847 and the relative viability (NCI-H727; first compound 0.01 µM) was 0.658. For the same compound, the relative viability (NCI-H727; first compound 0.03162 µM) was 0.732, the relative viability (NCI-H727; first compound 0.1 µM) was 0.732 and the relative viability (PC-3 [JPC-3]; first compound 0.001 µM) was 1.05. It also gave a relative viability (PC-3 [JPC-3]; first compound 0.01 µM) of 1.35, a relative viability (PC-3 [JPC-3]; first compound 0.03162 µM) of 1.16 and a relative viability (PC-3 [JPC-3]; first compound 0.1 µM) of 0.829. It also gave a relative viability (SK-LU-1; first compound 0.001 µM) of 0.408, a relative viability (SK-LU-1; first compound 0.003162 µM) of 0.469 and a relative viability (SK-LU-1; first compound 0.01 µM) of 0.541. The relative viability (SK-LU-1; first compound 0.03162 µM) was 0.354, the relative viability (SK-LU-1; first compound 0.1 µM) was 0.444 and the relative viability (SW 900; first compound 0.003162 µM) was 0.916. For the same compound, the relative viability (SW 900; first compound 0.01 µM) was 0.965, the relative viability (SW 900; first compound 0.03162 µM) was 0.77 and the relative viability (SW 900; first compound 0.1 µM) was 0.776.
